Tests used:
[1] = target: T1, plasminogen (Homo sapiens, UniProt P00747); conditions: JP 2004-224737; cited from earlier work
[2] = target: T1, plasminogen; conditions: cited from earlier work
[3] = system: chronic hepatitis model mice; assay: Liver function ameliorative effects in chronic hepatitis model mice (carbon tetrachloride); plasma AST, ALT, ChE; format: in vivo, ICR mice
Experimental: Production of chronic hepatitis model mice was carried out according to a modified version of the method of Vogten et al. (J. Mathys Vogten et al., Int. J. Colorectal Dis. (2004), 19: 387-394).
ICR mice weighing about 30 g (age: 6 weeks, males, supplier: Sankyo Labo Service) were used in the experiment after preliminarily housing for 5 days while allowing free access to solid feed (Labo MR Stock) and distilled water. The animals were housed in an animal room set to conditions consisting of a temperature of 22±2° C., humidity of 60±5% and light-dark cycle of 12 hours.
Following preliminary housing, the animals were intraperitoneally administered carbon tetrachloride (10% corn oil solution (v/v)) three times a week. The initially dose was 330 μl/kg, the second dose was […], and all subsequent doses were 500 μl/kg. This administration was carried out over the course of six weeks to produce chronic hepatitis model mice.
After administering carbon tetrachloride for 6 weeks, the animals were divided into an orniplabin dose group and control group so as to be statistically equivalent (orniplabin dose group: 7 animals, control group: 6 animals). Orniplabin was continuously administered into the abdominal cavity at 10 mg/kg. The control group was continuously administered physiological saline into the abdominal cavity at 2 ml/kg. This procedure was carried out for 14 days.
Following completion of administration, blood samples were collected from the vena cava into a syringe barrel containing anticoagulant in the form of 3.8% sodium citrate solution ( 1/10 volume of collected blood), and the resulting blood was centrifuged immediately for 20 minutes at 3000 rpm to collect the supernatant for use as blood samples.
The levels of AST ([…], GOT), ALT (alanine aminotransferase, GPT) and ChE (cholinesterase) were measured for the resulting blood samples (Hitachi Model 7180 Autoanalyzer).

[4] = system: pulmonary embolism model rats; conditions: pulmonary embolism model rats in vivo; cited from earlier work
[5] = 10 mg/kg into the abdominal cavity for 14 days, versus normal level

T1 sequence (P00747 20-810 limits assumed, species assumed): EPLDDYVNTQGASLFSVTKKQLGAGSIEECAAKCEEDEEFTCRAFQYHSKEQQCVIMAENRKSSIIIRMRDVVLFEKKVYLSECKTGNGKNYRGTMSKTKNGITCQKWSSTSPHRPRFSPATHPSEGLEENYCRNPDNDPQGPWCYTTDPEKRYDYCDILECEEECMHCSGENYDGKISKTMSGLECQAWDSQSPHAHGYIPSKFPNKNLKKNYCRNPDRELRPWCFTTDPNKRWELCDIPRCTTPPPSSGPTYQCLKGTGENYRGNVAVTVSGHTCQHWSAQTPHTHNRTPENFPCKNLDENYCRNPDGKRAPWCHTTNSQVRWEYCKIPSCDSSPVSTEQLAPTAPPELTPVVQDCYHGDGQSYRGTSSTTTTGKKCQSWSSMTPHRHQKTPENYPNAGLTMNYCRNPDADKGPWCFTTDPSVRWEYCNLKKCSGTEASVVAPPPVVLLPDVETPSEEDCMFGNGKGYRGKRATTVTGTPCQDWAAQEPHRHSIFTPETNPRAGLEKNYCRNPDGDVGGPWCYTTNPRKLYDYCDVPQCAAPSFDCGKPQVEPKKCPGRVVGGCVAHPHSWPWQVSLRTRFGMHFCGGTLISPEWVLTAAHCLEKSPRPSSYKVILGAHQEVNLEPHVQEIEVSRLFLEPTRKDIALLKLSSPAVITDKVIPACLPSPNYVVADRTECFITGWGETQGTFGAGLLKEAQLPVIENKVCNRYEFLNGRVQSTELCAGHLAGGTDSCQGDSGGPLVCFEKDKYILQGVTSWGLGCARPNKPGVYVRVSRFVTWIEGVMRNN

Structure (SMILES): CC(C)=CCC/C(C)=C/CCC1(C)Oc2c(c(O)cc3c2CN(CCCC(C(=O)O)N2Cc4c(cc(O)c5c4OC(C)(CC/C=C(\C)CCC=C(C)C)C(O)C5)C2=O)C3=O)CC1O (stereo not drawn) [orniplabin]
- plasminogen activation [1]: promotes plasminogen activation
- binding of plasminogen to fibrin [2]: promotes binding of plasminogen to fibrin
- plasma AST, orniplabin dose group as compared with the control group ([3]; 10 mg/kg into the abdominal cavity for 14 days after 6 weeks carbon tetrachloride, FIG. 1): significant (P<0.01) decrease
- plasma ALT, orniplabin dose group versus control group ([3]; 10 mg/kg into the abdominal cavity for 14 days after 6 weeks carbon tetrachloride, FIG. 2): no significant differences observed
- plasma ChE, orniplabin dose group as compared with the control group ([3]; 10 mg/kg into the abdominal cavity for 14 days after 6 weeks carbon tetrachloride, FIG. 3): significant (P<0.01) increase
- plasma ALT, orniplabin dose group as compared with the normal group ([3]; 10 mg/kg into the abdominal cavity for 14 days, FIG. 2): increases were not observed
- cholinesterase levels (protein synthesis ability of the liver) [3, 5]: recovered to the same level as the normal level
- degree of impaired liver function (AST and ALT) [3, 5]: recover to nearly the normal level
- dissolution of pulmonary embolisms thrombus [4]: promotes dissolution of pulmonary embolisms thrombus
